Counter-ions that a name gives are not always drawn. Like-named read-outs stand apart in the source and are kept apart here.
How the values were obtained:
BCL-XL = BCL-XL (Homo sapiens (Human), UniProt Q07817); test: Protein-protein interaction assay BCL-XL/Bad BH3 peptide (BCL-XL assay, TR-FRET); assay type: binding; conditions: His-BCL-XL / Bad BH3 peptide, median
Experimental: Assay 2 Protein-Protein Interaction Assay: BCL-XL/Bad BH3 Peptide (BCL-XL Assay)
The dose-dependent inhibition by the compounds described in this invention of the interaction between BCL-XL and the BH3 domain of Bad (both human) was determined using a steady state binding competition assay with time-resolved fluorescence energy transfer (TR-FRET) readout. For that purpose BCL-XL (amino acids 1-212, C-terminal fused to a hexahistidine (6×His) tag (SEQ ID 3) and a synthetic Bad BH3-derived peptide of sequence Biotin-PEG2-PEG2-NLWAAQRYGRELRR-Nle-SDEFVDSFKK-amide (SEQ ID 4) served as protein receptor and tracer ligand respectively. The recombinant BCL-XL protein (expressed in E. coli) was purchased from BPS Bioscience (San Diego, Calif., USA). The Bad BH3-derived peptide can be obtained from e.g. Biosyntan (Berlin, Germany).
In the assay 11 different concentrations of each compound (0.1 nM, 0.33 nM, 1.1 nM, 3.8 nM, 13 nM, 44 nM, 0.15 μM, 0.51 μM, 1.7 μM, 5.9 μM and 20 μM) were typically measured as duplicates in the same microtiter plate. For that, 100-fold concentrated DMSO solutions were prepared by serial dilutions (1:3.4) of a 2 mM stock solution in a clear, 384-well microtiter plate (Greiner Bio-One, Frickenhausen, Germany). From there, 50 nl were transferred in a dark test plate (Greiner Bio-One, Frickenhausen, Germany). The assay was initiated by addition of 2 μl of a 2.5-fold concentrated His-BCL-XL solution (usually for a 1 nM end concentration in 5 μl reaction volume) in aqueous assay buffer [50 mM Tris/HCl pH 7, 100 mM sodium chloride (NaCl), 50 mM potassium fluoride (KF), 0.005% Tween-20, 2 mM DTT, 0.1% bovine gamma globulin (BGG)] to the compounds in the assay plate. This was followed by a 10-minute incubation step at 22° C. for pre-equilibration of the putative complex between His-BCL-XL and the compounds. After that, 3 μl of a 1.67-fold concentrated solution (in assay buffer) consisting of Bad BH3-derived peptide (1 nM end concentration) and TR-FRET detection reagents [1.67 nM anti-His-Eu cryptate and 1.67 nM streptavidin-XL665 (both from Cisbio Bioassays, Codolet, France)], were added.
The mixture was incubated in the dark for one hour at 22° C. and then overnight at 4° C. The formation of BCL-XL/Bad complexes was determined by measuring the resonance energy transfer of the anti-His- Eu-cryptate antibody to the streptavidin-XL665 present in the reaction. For that purpose, the fluorescence emission at 620 nm and 665 nm after excitation at 330-350 nm was measured in a TR-FRET measuring instrument, for instance a Rubystar or a Pherastar (both from BMG Lab Technologies, Offenburg, Germany) or a Viewlux (Perkin-Elmer). The ratio of the emission at 665 nm and at 622 nm was used as indicator of the amount of BCL-XL/Bad complexes present.
The resulting data (ratio) were normalized, taking 0% inhibition as the mean value of control measurements (usually 32 data points) where all reagents were included. In this case 50 nl DMSO were used instead of compounds. A 100% inhibition corresponded to the mean value of control measurements (usually 32 data points) where all reagents except BCL-XL were included. IC50 values were determined by regression analysis based on a 4 parameter equation (minimum, maximum, IC50, Hill; Y=Max+(Min−Max)/(1+(X/IC50)^HiII) using the Screener Software (Genedata).

MV-4-11 = test: Antiproliferation assay (Assay 7), MV-4-11; assay type: cell-based; conditions: CellTiter-Glo, several values per example
Summary of the method: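 Luminescent ATP-based viability (CellTiter-Glo) measured after 72 hours of compound treatment at 37° C, alongside a time-zero plate read on the day of plating.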

[1] = Homo sapiens, MV4-11, 72 h, read-out: Antiproli MV-4-11 [M] IC50
[2] = 72 hours, read-out: Antiproli MV-4-11 [M] IC50

Chain of BCL-XL (Q07817 other isoform, or with tags, fused parts or gaps): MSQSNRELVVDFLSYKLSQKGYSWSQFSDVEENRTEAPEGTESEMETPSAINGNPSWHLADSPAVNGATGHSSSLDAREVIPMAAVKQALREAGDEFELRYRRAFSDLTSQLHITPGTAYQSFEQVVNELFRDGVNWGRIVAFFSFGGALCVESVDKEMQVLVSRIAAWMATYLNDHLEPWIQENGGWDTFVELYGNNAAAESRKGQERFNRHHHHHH

| SMILES | IC50 (BCL-XL) [µM] | IC50 (MV-4-11; [1]) [M] | IC50 (MV-4-11; [2]) [M] | IC50 (MV-4-11; 72 hours, listed as 03, read-out: Antiproli MV-4-11 [M] IC50) [M] |
| --- | --- | --- | --- | --- |
| Cc1c2c(nn1C)CN(C)S(=O)(=O)CCCn1c(C(=O)O)c(CCCOc3cccc4ccccc34)c3ccc(F)c-2c31 (racemic) [Example 26, (rac)-13-Fluoro-8,11,12-trimethyl-1-(3-(naphthalen-1-yloxy)propyl)-5,6,9,11-tetrahydro-4H,8H-pyrazolo[3′,4′:4,5][1]thia[2,8]diazacycloundecino[6,7,8-hi]indole-2-carboxylic acid 7,7-dioxide] | > 20 | 5.17e-07 | – | – |
| Cc1c2c(nn1C)CN(C)S(=O)(=O)CCCn1c(C(=O)O)c(CCCOc3cccc4c3CCCC4)c3ccc(F)c-2c31 (racemic) [Example 29, (rac)-13-Fluoro-8,11,12-trimethyl-1-(3-((5,6,7,8-tetrahydronaphthalen-1-yl)oxy)propyl)-5,6,9,11-tetrahydro-4H,8H-pyrazolo[3′,4′:4,5][1]thia[2,8]diazacycloundecino[6,7,8-hi]indole-2-carboxylic acid 7,7-dioxide] | > 20 | 5.86e-06 | – | – |
| CCc1c2c(nn1C)C(C)N(C)S(=O)(=O)CCCn1c(C(=O)O)c(CCCOc3cccc4ccccc34)c3cccc-2c31 (racemic) [Example 18, 12-Ethyl-8,9,11-trimethyl-1-(3-(naphthalen-1-yloxy)propyl)-5,6,9,11-tetrahydro-4H,8H-pyrazolo[3′,4′:4,5][1]thia[2,8]diazacycloundecino[6,7,8-hi]indole-2-carboxylic acid 7,7-dioxide (Mixture of Stereoisomers)] | > 20 | 3.75e-06 | – | – |
| CCc1c2c(nn1C)CN(C)S(=O)(=O)CCCn1c(C(=O)O)c(CCCOc3cc(C)c(Cl)c(C)c3)c3ccc(F)c-2c31 (racemic) [Example 33, (rac)-1-(3-(4-Chloro-3,5-dimethylphenoxy)propyl)-12-ethyl-13-fluoro-8,11-dimethyl-5,6,9,11-tetrahydro-4H,8H-pyrazolo[3′,4′:4,5][1]thia[2,8]diazacycloundecino[6,7,8-hi]indole-2-carboxylic acid 7,7-dioxide] | > 20 | 4.62e-06 | – | – |
| CCc1c2c(nn1C)CN(CCCN1CCCC1)S(=O)(=O)CCCn1c(C(=O)O)c(CCCOc3cccc4ccccc34)c3cccc-2c31 (racemic) [Example 16, (rac)-12-Ethyl-11-methyl-1-(3-(naphthalen-1-yloxy)propyl)-8-(3-(pyrrolidin-1-yl)propyl)-5,6,9,11-tetrahydro-4H,8H-pyrazolo[3′,4′:4,5][1]thia[2,8]diazacycloundecino[6,7,8-hi]indole-2-carboxylic acid 7,7-dioxide] | > 20 | > 3.3e-05 | – | – |
| CCc1c2c(nn1C)CN(C)S(=O)(=O)CCCn1c(C(=O)O)c(CCCOc3ccc(F)c4ccccc34)c3ccc(Cl)c-2c31 [Example 24, (rac)-13-Chloro-12-ethyl-1-(34(4-fluoronaphthalen-1-yl)oxy)propyl)-8,11-dimethyl-4,5,6,8,9,11-hexahydropyrazolo[3′,4′:4,5][1,2,8]thiadiazacycloundecino[6,7,8-hi]indole-2-carboxylic acid 7,7-dioxide] | > 20 | 2.5e-06 | – | – |
| CCc1c2c(nn1C)CN(C)S(=O)(=O)CCCn1c(C(=O)O)c(CCCOc3cccc4c3CCCC4)c3ccc(F)c-2c31 (racemic) [Example 34, (rac)-12-Ethyl-13-fluoro-8,11-dimethyl-1-(3-((5,6,7,8-tetrahydronaphthalen-1-yl)oxy)propyl)-5,6,9,11-tetrahydro-4H,8H-pyrazolo[3′,4′:4,5][1]thia[2,8]diazacycloundecino[6,7,8-hi]indole-2-carboxylic acid 7,7-dioxide] | > 20 | 4.83e-06 | – | – |

The next lines start with the values.

| IC50 (BCL-XL) [µM] | IC50 (MV-4-11; [1]) [M] | IC50 (MV-4-11; [2]) [M] | IC50 (MV-4-11; 72 hours, listed as 03, read-out: Antiproli MV-4-11 [M] IC50) [M] | SMILES |
| --- | --- | --- | --- | --- |
| > 20 | 2.1e-06 | – | – | CCc1c2c(nn1C)CN(C)S(=O)(=O)CCCn1c(C(=O)O)c(CCCOc3cccc4c3CCC4)c3ccc(Cl)c-2c31 [Example 21, (rac)-13-Chloro-1-(3-((2,3-dihydro-1H-inden-4-yl)oxy)propyl)-12-ethyl-8,11-dimethyl-5,6,9,11-tetrahydro-4H,8H-pyrazolo[3′,4′:4,5][1]thia[2,8]diazacycloundecino[6,7,8-hi]indole-2-carboxylic acid 7,7-dioxide] |
| > 20 | 9.37e-06 | 1.04e-05 | – | CCc1c2c(nn1C)CN(CCCN1CCOCC1)S(=O)(=O)CCCn1c(C(=O)O)c(CCCOc3cccc4ccccc34)c3cccc-2c31 (racemic) [Example 15, (rac)-12-Ethyl-11-methyl-8-(3-morpholinopropyl)-1-(3-(naphthalen-1-yloxy)propyl)-4,5,6,8,9,11-hexahydropyrazolo[3′,4′:4,5][1,2,8]thiadiazacycloundecino[6,7,8-hi]indole-2-carboxylic acid 7,7-dioxide 2,2,2-trifluoroacetic acid salt] |
| > 20 | 2.2e-06 | 1.14e-06 | – | CCc1c2c(nn1C)CN(C)S(=O)(=O)CCCn1c(C(=O)O)c(CCCOc3cccc4c3CCC4)c3ccc(F)c-2c31 (racemic) [Example 32, (rac)-1-(3-((2,3-Dihydro-1H-inden-4-yl)oxy)propyl)-12-ethyl-13-fluoro-8,11-dimethyl-5,6,9,11-tetrahydro-4H,8H-pyrazolo[3′,4′:4,5][1]thia[2,8]diazacycloundecino[6,7,8-hi]indole-2-carboxylic acid 7,7-dioxide] |
| > 20 | 1.96e-06 | – | – | CCc1c2c(nn1C)CN(C)S(=O)(=O)CCCn1c(C(=O)O)c(CCCOc3cccc4c3CCCC4)c3ccc(Cl)c-2c31 [Example 23, (rac)-13-Chloro-12-ethyl-8,11-dimethyl-1-(3-((5,6,7,8-tetrahydronaphthalen-1-yl)oxy)propyl)-4,5,6,8,9,11-hexahydropyrazolo[3′,4′:4,5][1,2,8]thiadiazacycloundecino[6,7,8-hi]indole-2-carboxylic acid 7,7-dioxide] |
| > 20 | – | – | 1.54e-05 | Cc1c2c(nn1C)CN(CCN1CCOCC1)S(=O)(=O)CCCn1c(C(=O)O)c(CCCOc3cccc4ccccc34)c3cccc-2c31 (single isomer, unassigned; enantiomer 2) [Example 3, 2,3-Dimethyl-14-[2-(morpholin-4-yl)ethyl]-7-{3-[(naphthalen-1-yl)oxy]propyl}-13,13-dioxo-10,11,12,13,14,15-hexahydro-2H-13λ^6-pyrazolo[3′,4′:4,5][1,2,8]thiadiazacycloundecino-[6,7,8-hi]indole-8-carboxylic acid-N-ethylethanamine salt (Enantiomer 2)] |
| > 20 | 4.34e-06 | 8.18e-06 | – | CCc1c2c(nn1C)CN(C)S(=O)(=O)CCCn1c(C(=O)O)c(CCCOc3ccc(F)c4ccccc34)c3ccc(F)c-2c31 (racemic) [Example 35, (rac)-12-Ethyl-13-fluoro-1-(34(4-fluoronaphthalen-1-yl)oxy)propyl)-8,11-dimethyl-5,6,9,11-tetrahydro-4H,8H-pyrazolo[3′,4′:4,5][1]thia[2,8]diazacycloundecino[6,7,8-hi]indole-2-carboxylic acid 7,7-dioxide] |
| > 20 | 3.5e-06 | – | – | Cc1c2c(nn1C)CN(C)S(=O)(=O)CCCn1c(C(=O)O)c(CCCOc3ccc(F)c4ccccc34)c3ccc(F)c-2c31 [Example 30, (rac)-13-Fluoro-1-(34(4-fluoronaphthalen-1-yl)oxy)propyl)-8,11,12-trimethyl-5,6,9,11-tetrahydro-4H,8H-pyrazolo[3′,4′:4,5][1]thia[2,8]diazacycloundecino[6,7,8-hi]indole-2-carboxylic acid 7,7-dioxide] |
